pIC50: −log10 of the molar value.
Legend:
[1] = test system: MOLM14 D835Y cells; test: MOLM14 D835Y cell viability assay (Cell Titer Glo); type: cell-based
How it was run: (§1)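 MOLM14 cells carrying FLT3 D835Y or F691L were seeded at 1000 cells/well in RPMI-1640 with 20% FBS and dosed at 22 concentrations, 1:2 dilutions from 10 μM. Viability after 48 h by Cell Titer Glo luminescence; 2.3 μM bortezomib as cytotoxic control.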

[2] = target: T1, IRAK4 (Homo sapiens, UniProt Q9NWZ3); test: RBC HotSpot Kinase Assay, IRAK4; type: biochemical; design: purchased Reaction Biology (RBC), HotSpot kinase assay; settings: isolated kinase, 33P-ATP
T1 sequence (Q9NWZ3 1-460): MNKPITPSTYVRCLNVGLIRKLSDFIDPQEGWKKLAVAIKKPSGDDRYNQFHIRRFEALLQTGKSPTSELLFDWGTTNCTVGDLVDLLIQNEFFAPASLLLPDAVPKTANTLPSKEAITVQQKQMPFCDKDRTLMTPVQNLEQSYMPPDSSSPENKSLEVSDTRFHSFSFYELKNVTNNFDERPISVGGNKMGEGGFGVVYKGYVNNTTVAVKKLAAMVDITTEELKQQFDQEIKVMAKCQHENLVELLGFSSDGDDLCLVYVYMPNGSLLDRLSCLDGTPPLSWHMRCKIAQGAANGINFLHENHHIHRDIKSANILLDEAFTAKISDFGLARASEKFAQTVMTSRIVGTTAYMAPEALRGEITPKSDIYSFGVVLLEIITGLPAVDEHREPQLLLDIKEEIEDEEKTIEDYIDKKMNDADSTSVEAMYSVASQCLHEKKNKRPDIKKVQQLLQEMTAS
How it was run: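 Read-out was P81 filter binding of 33P incorporated into substrate by isolated kinase during a 2 h room-temperature reaction. Compound was preincubated with enzyme for 20 min at room temperature; buffer was Hepes pH 7.5 with Mg2+, EGTA, Brij35 and 1% DMSO.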

[3] = test system: MOLM14 F691L cells; test: MOLM14 F691L cell viability assay (Cell Titer Glo); type: cell-based
How it was run: as §1

pIC50 ([1]; Homo sapiens, MOLM-14, 48 h)	pIC50 [2]	pIC50 ([3]; Homo sapiens, MOLM-14, 48 h)	pIC50 ([1]; 48 hours)	pIC50 ([3]; 48 hours)	Compound
7.17	8.52	6.71	–	–	CC(O)(c1cn2c(-c3cccc(N[C@H]4CNCC[C@@H]4F)n3)cnc2cn1)C(F)(F)F (single isomer, unassigned) [Compound 80]
–	> 9.30	–	7.33	6.52	CC(O)(c1cn2c(-c3cccc(N[C@H]4CNC[C@@H]4F)n3)cnc2cn1)C(F)(F)F (single isomer, unassigned) [Compound 78]
8.30	8.22	7.59	–	–	O=S1(=O)CCCN1c1cn2c(-c3cccc(N[C@H]4CNCC[C@@H]4F)n3)cnc2cn1 [Compound 97, 2-(3-(6-(((3S,4S)-4-fluoropiperidin-3-yl)amino)pyridin-2-yl)imidazo[1,2-a]pyrazin-6-yl)isothiazolidine 1,1-dioxide]
7.68	8.70	6.69	–	–	CC(C)(C)c1cn2c(-c3nc(N[C@@H]4CCCNC4)c(F)cc3F)cnc2cn1 [Compound 126, (R)-6-(6-(tert-butyl)imidazo[1,2-a]pyrazin-3-yl)-3,5-difluoro-N-(piperidin-3-yl)pyridin-2-amine]
7.64	8.30	6.76	–	–	O=C1CCCN1c1cn2c(-c3cccc(N[C@H]4CNC[C@@H]4F)n3)cnc2cn1 [Compound 121, 1-(3-(6-(((3S,4S)-4-fluoropyrrolidin-3-yl)amino)pyridin-2-yl)imidazo[1,2-a]pyrazin-6-yl)pyrrolidin-2-one]
7.72	8.00	7.27	–	–	O=C1CCCN1c1cn2c(-c3cccc(N[C@H]4CNCC[C@@H]4F)n3)cnc2cn1 [Compound 119, 1-(3-(6-(((3S,4S)-4-fluoropiperidin-3-yl)amino)pyridin-2-yl)imidazo[1,2-a]pyrazin-6-yl)pyrrolidin-2-one]
7.48	9.00	6.79	–	–	CC(C)(C)c1cn2c(-c3cccc(N[C@@H]4CCCNC4)n3)cnc2cn1 [Compound 129, (R)-6-(6-(tert-butyl)imidazo[1,2-a]pyrazin-3-yl)-N-(piperidin-3-yl)pyridin-2-amine]
7.59	7.89	6.74	–	–	O=C1CCCN1c1cn2c(-c3nc(N[C@@H]4CCCNC4)c(F)cc3F)cnc2cn1 [Compound 108, (R)-1-(3-(3,5-difluoro-6-(piperidin-3-ylamino)pyridin-2-yl)imidazo[1,2-a]pyrazin-6-yl)pyrrolidin-2-one]
6.79	9.15	5.69	–	–	CC(C)(C)c1cn2c(-c3nc(N[C@H]4CNC[C@@H]4F)c(F)cc3F)cnc2cn1 [Compound 125]
8.05	8.40	7.43	–	–	O=C1NCCN1c1cn2c(-c3cccc(N[C@H]4CNCC[C@@H]4F)n3)cnc2cn1 [Compound 118, 1-(3-(6-(((3S,4S)-4-fluoropiperidin-3-yl)amino)pyridin-2-yl)imidazo[1,2-a]pyrazin-6-yl)imidazolidin-2-one]
7.36	8.70	6.39	–	–	CC(C)(C)c1cn2c(-c3nc(N[C@H]4CNCC[C@@H]4F)c(F)cc3F)cnc2cn1 [Compound 127, 6-(6-(tert-butyl)imidazo[1,2-a]pyrazin-3-yl)-3,5-difluoro-N-((3S,4S)-4-fluoropiperidin-3-yl)pyridin-2-amine]
–	> 9.30	–	7.47	6.80	CC(O)(c1cn2c(-c3cccc(N[C@H]4CNCC[C@@H]4F)n3)cnc2cn1)C(F)(F)F (single isomer, unassigned) [Compound 82]
7.59	8.52	6.89	–	–	CC(C)(C)c1cn2c(-c3cccc(N[C@H]4CNCC[C@@H]4F)n3)cnc2cn1 [Compound 130, 6-(6-(tert-butyl)imidazo[1,2-a]pyrazin-3-yl)-N-((3S,4S)-4-fluoropiperidin-3-yl)pyridin-2-amine]

Further lines, the compound ahead of its results:

Compound	pIC50 ([1]; Homo sapiens, MOLM-14, 48 h)	pIC50 [2]	pIC50 ([3]; Homo sapiens, MOLM-14, 48 h)	pIC50 ([1]; 48 hours)	pIC50 ([3]; 48 hours)
FC(F)(F)C1(c2cn3c(-c4cccc(N[C@@H]5CCNC5)n4)cnc3cn2)CC1 [Compound 10, (R)-N-(pyrrolidin-3-yl)-6-(6-(1-(trifluoromethyl)cyclopropyl)imidazo[1,2-a]pyrazin-3-yl)pyridin-2-amine]	7.85	8.70	6.77	–	–
FC(F)(F)COc1cn2c(-c3cccc(N[C@@H]4CCNC4)n3)cnc2cn1 [Compound 38, (R)-N-(pyrrolidin-3-yl)-6-(6-(2,2,2-trifluoroethoxy)imidazo[1,2-a]pyrazin-3-yl)pyridin-2-amine]	7.64	9.10	–	–	–
CC(C)(O)c1cn2c(-c3nc(N[C@H]4CNC[C@@H]4F)c(F)cc3F)cnc2cn1 [Compound 33, 2-(3-(3,5-difluoro-6-(((3S,4S)-4-fluoropyrrolidin-3-yl)amino)pyridin-2-yl)imidazo[1,2-a]pyrazin-6-yl)propan-2-ol]	6.77	> 9.30	5.57	–	–
CC1(c2cn3c(-c4cccc(N[C@H]5CNC[C@@H]5F)n4)cnc3cn2)CC1 [Compound 1, N-((3S,4S)-4-fluoropyrrolidin-3-yl)-6-(6-(1-methylcyclopropyl)imidazo[1,2-a]pyrazin-3-yl)pyridin-2-amine]	7.74	9.30	6.77	–	–
CC(C)(O)c1cn2c(-c3cccc(N[C@H]4CNCC[C@@H]4F)n3)cnc2cn1 [Compound 31, 2-(3-(6-(((3S,4S)-4-fluoropiperidin-3-yl)amino)pyridin-2-yl)imidazo[1,2-a]pyrazin-6-yl)propan-2-ol]	7.20	> 9.30	6.60	–	–
CC(O)(c1cn2c(-c3cccc(N[C@H]4CNC[C@@H]4F)n3)cnc2cn1)C(F)(F)F (single isomer, unassigned) [Compound 77]	–	8.52	6.42	6.97	–
FC(F)c1cn2c(-c3cccc(N[C@H]4CNC[C@@H]4F)n3)cnc2cn1 [Compound 16, 6-(6-(difluoromethyl)imidazo[1,2-a]pyrazin-3-yl)-N-((3S,4S)-4-fluoropyrrolidin-3-yl)pyridin-2-amine]	7.68	9.00	6.65	–	–
Cn1cc(-c2cn3c(-c4cccc(N[C@@H]5CCCNC5)n4)cnc3cn2)cn1 [Compound 43, (R)-6-(6-(1-methyl-1H-pyrazol-4-yl)imidazo[1,2-a]pyrazin-3-yl)-N-(piperidin-3-yl)pyridin-2-amine]	8.10	7.92	7.10	–	–
F[C@H]1CNC[C@@H]1Nc1cccc(-c2cnc3cnc(C4CC4)cn23)n1 [Compound 50, 6-(6-cyclopropylimidazo[1,2-a]pyrazin-3-yl)-N-((3S,4S)-4-fluoropyrrolidin-3-yl)pyridin-2-amine]	7.62	9.22	6.72	–	–
FC(F)c1cn2c(-c3cccc(N[C@H]4CNCC[C@@H]4F)n3)cnc2cn1 [Compound 25, 6-(6-(difluoromethyl)imidazo[1,2-a]pyrazin-3-yl)-N-((3S,4S)-4-fluoropiperidin-3-yl)pyridin-2-amine]	8.05	9.00	7.13	–	–
CC1(c2cn3c(-c4cccc(N[C@H]5CNCC56CC6)n4)cnc3cn2)CC1 [Compound 5, (R)-N-(6-(6-(1-methylcyclopropyl)imidazo[1,2-a]pyrazin-3-yl)pyridin-2-yl)-5-azaspiro[2.4]heptan-7-amine]	8.70	> 9.30	7.47	–	–
FC(F)COc1cn2c(-c3cccc(N[C@H]4CNC[C@@H]4F)n3)cnc2cn1 [Compound 58, 6-(6-(2,2-difluoroethoxy)imidazo[1,2-a]pyrazin-3-yl)-N-((3S,4S)-4-fluoropyrrolidin-3-yl)pyridin-2-amine]	7.52	9.00	–	–	–
CC(C)(O)c1cn2c(-c3nc(N[C@@H]4CCCNC4)c(F)cc3F)cnc2cn1 [Compound 34, (R)-2-(3-(3,5-difluoro-6-(piperidin-3-ylamino)pyridin-2-yl)imidazo[1,2-a]pyrazin-6-yl)propan-2-ol]	6.97	8.70	5.87	–	–
CC1(c2cn3c(-c4cccc(N[C@@H]5CCNC5)n4)cnc3cn2)CC1 [Compound 3, (R)-6-(6-(1-methylcyclopropyl)imidazo[1,2-a]pyrazin-3-yl)-N-(pyrrolidin-3-yl)pyridin-2-amine]	8.22	9.05	–	–	–
CC(C)(O)c1cn2c(-c3nc(N[C@H]4CNCC[C@@H]4F)c(F)cc3F)cnc2cn1 [Compound 35, 2-(3-(3,5-difluoro-6-(((3S,4S)-4-fluoropiperidin-3-yl)amino)pyridin-2-yl)imidazo[1,2-a]pyrazin-6-yl)propan-2-ol]	7.03	9.10	6.08	–	–
F[C@H]1CCNC[C@@H]1Nc1cccc(-c2cnc3cnc(C4CC4)cn23)n1 [Compound 51, 6-(6-cyclopropylimidazo[1,2-a]pyrazin-3-yl)-N-((3S,4S)-4-fluoropiperidin-3-yl)pyridin-2-amine]	8.05	9.00	7.28	–	–
